Test: xn = mol fraction of the nth substance listed

CCC(=O)O.CCC(=O)[O-].CC[NH+](CC)CCO + CCCC[n+]1ccn(C)c1.COP(=O)([O-])OC
101 kPa
Conditions	viscosity [mPa·s]
278.15 K, x1 = 0.08	1956
283.15 K, x1 = 0.2364	446
283.15 K, x1 = 0.4953	205.6
283.15 K, x1 = 0.6252	170.9
283.15 K, x1 = 0.7416	147.7
288.15 K, x1 = 0.6252	123.8
293.15 K, x1 = 0.3281	154
293.15 K, x1 = 0.8667	70.8
298.15 K, x1 = 0.7416	60.3
298.15 K, x1 = 1	66.2
303.15 K, x1 = 0.08	280.9
303.15 K, x1 = 0.2364	123.4
303.15 K, x1 = 0.4183	70.2
303.15 K, x1 = 0.8667	41.6
308.15 K, x1 = 0.4183	54.9
308.15 K, x1 = 0.8667	32.8
313.15 K, x1 = 0.3281	53.8
313.15 K, x1 = 0.4953	39.2
318.15 K, x1 = 0.6252	27.36
323.15 K, x1 = 0.2364	47.3
323.15 K, x1 = 0.4953	25.98
328.15 K, x1 = 0.2364	38.66
328.15 K, x1 = 0.7416	16.29
328.15 K, x1 = 0.8667	14.65
333.15 K, x1 = 0.4953	18.11
333.15 K, x1 = 0.8667	12.33
333.15 K, x1 = 1	14.08
338.15 K, x1 = 0.08	48.11
338.15 K, x1 = 0.2364	26.76
338.15 K, x1 = 0.6252	13.4
338.15 K, x1 = 0.7416	11.64
343.15 K, x1 = 0.4953	13.09
348.15 K, x1 = 0.1549	25.27
348.15 K, x1 = 0.4183	12.61
348.15 K, x1 = 0.6252	9.95
348.15 K, x1 = 0.8667	7.75
353.15 K, x1 = 0.1549	21.56
353.15 K, x1 = 0.4183	10.98
358.15 K, x1 = 0.4183	9.63
358.15 K, x1 = 0.4953	8.59
358.15 K, x1 = 0.6252	7.61
363.15 K, x1 = 0.7416	5.82
363.15 K, x1 = 1	5.7
368.15 K, x1 = 0.08	17.66
368.15 K, x1 = 0.1549	14.09
368.15 K, x1 = 0.7416	5.16
373.15 K, x1 = 0.7416	4.6
373.15 K, x1 = 1	4.41

CCCCCC[n+]1ccn(C)c1.F[B-](F)(F)F + CN(CCO)CCO
101 kPa
Conditions	viscosity [mPa·s]
303.15 K, x2 = 0.3916	72.6
303.15 K, x2 = 0.4949	69.8
303.15 K, x2 = 0.7928	62.2
313.15 K, x2 = 0.5936	41.8
313.15 K, x2 = 0.8824	36.8
318.15 K, x2 = 0.4949	34.3

O=S(=O)([O-])[O-].[Na+].[Na+] + CCCCCCCCCCCC[N+](C)(C)C.[Br-] + O
298.15 K, 101 kPa
Conditions	electrical conductivity [S/m]
x2 = 0, x1 = 0.0001802	0.219
x2 = 0, x1 = 0.001799	1.527
x2 = 1.98e-06, x1 = 0.0001802	0.2192
x2 = 4.2e-06, x1 = 0.001799	1.523
x2 = 6.31e-06, x1 = 0.0001802	0.2208
x2 = 1.064e-05, x1 = 0.0001802	0.2225
x2 = 1.241e-05, x1 = 0.001799	1.523
x2 = 1.516e-05, x1 = 0.0001802	0.2243
x2 = 2.061e-05, x1 = 0.001799	1.525
x2 = 2.201e-05, x1 = 0.0001802	0.2272
x2 = 2.882e-05, x1 = 0.001799	1.526
x2 = 3.067e-05, x1 = 0.0001802	0.231
x2 = 3.667e-05, x1 = 0.001799	1.528
x2 = 3.951e-05, x1 = 0.0001802	0.2348
x2 = 4.451e-05, x1 = 0.001799	1.531
x2 = 5.088e-05, x1 = 0.0001802	0.2397
x2 = 5.235e-05, x1 = 0.001799	1.533
x2 = 6.188e-05, x1 = 0.0001802	0.2448
x2 = 6.221e-05, x1 = 0.001799	1.536
x2 = 6.932e-05, x1 = 0.001799	1.538
x2 = 7.271e-05, x1 = 0.0001801	0.2498
x2 = 7.662e-05, x1 = 0.001799	1.54
x2 = 8.353e-05, x1 = 0.0001801	0.2543
x2 = 8.391e-05, x1 = 0.001799	1.542
x2 = 9.048e-05, x1 = 0.001799	1.544
x2 = 9.435e-05, x1 = 0.0001801	0.2592
x2 = 9.741e-05, x1 = 0.001799	1.546
x2 = 0.0001038, x1 = 0.001799	1.548
x2 = 0.0001048, x1 = 0.0001801	0.2637
x2 = 0.0001104, x1 = 0.001799	1.55
x2 = 0.0001153, x1 = 0.0001801	0.2682
x2 = 0.0001173, x1 = 0.001799	1.553
x2 = 0.0001239, x1 = 0.001799	1.556
x2 = 0.0001257, x1 = 0.0001801	0.2729
x2 = 0.0001315, x1 = 0.001799	1.56
x2 = 0.0001364, x1 = 0.0001801	0.2774
x2 = 0.0001404, x1 = 0.001799	1.563
x2 = 0.0001467, x1 = 0.0001801	0.2821
x2 = 0.0001478, x1 = 0.001798	1.565
x2 = 0.0001549, x1 = 0.001798	1.567
x2 = 0.0001569, x1 = 0.0001801	0.2866
x2 = 0.0001623, x1 = 0.001798	1.569
x2 = 0.0001672, x1 = 0.0001801	0.2912
x2 = 0.0001702, x1 = 0.001798	1.571
x2 = 0.0001775, x1 = 0.0001801	0.2956
x2 = 0.0001777, x1 = 0.001798	1.573
x2 = 0.0001851, x1 = 0.001798	1.575
x2 = 0.0001876, x1 = 0.0001801	0.3
x2 = 0.000193, x1 = 0.001798	1.577
x2 = 0.0001975, x1 = 0.0001801	0.3042
x2 = 0.0001997, x1 = 0.001798	1.579
x2 = 0.0002074, x1 = 0.001798	1.58
x2 = 0.0002076, x1 = 0.0001801	0.308
x2 = 0.000215, x1 = 0.001798	1.582
x2 = 0.0002175, x1 = 0.0001801	0.311
x2 = 0.000222, x1 = 0.001798	1.584
x2 = 0.0002275, x1 = 0.0001801	0.3132
x2 = 0.0002287, x1 = 0.001798	1.586
x2 = 0.0002358, x1 = 0.001798	1.588
x2 = 0.0002368, x1 = 0.0001801	0.3149
x2 = 0.0002431, x1 = 0.001798	1.589
x2 = 0.0002466, x1 = 0.0001801	0.3165
x2 = 0.0002504, x1 = 0.001798	1.591
x2 = 0.0002565, x1 = 0.0001801	0.3178
x2 = 0.0002612, x1 = 0.001798	1.594
x2 = 0.000266, x1 = 0.0001801	0.3191
x2 = 0.0002739, x1 = 0.001798	1.597
x2 = 0.0002776, x1 = 0.0001801	0.3205
x2 = 0.0002909, x1 = 0.0001801	0.322
x2 = 0.0003061, x1 = 0.0001801	0.3238
x2 = 0.0003232, x1 = 0.0001801	0.3257
x2 = 0.0003423, x1 = 0.0001801	0.3278
x2 = 0.0003636, x1 = 0.0001801	0.3305
x2 = 0.0003892, x1 = 0.0001801	0.3335

CC(=O)[O-].CCCC[N+](CCCC)(CCCC)CCCC + CCCCCCCCCCCC[N+](C)(C)C.[Br-] + O
viscosity [mPa·s], 100 kPa
Conditions	x2 = 5.421e-05, x1 = 0.0001802	x2 = 0.0001084, x1 = 0.0001801	x2 = 0.0001626, x1 = 0.0001801	x2 = 0.0002168, x1 = 0.0001801	x2 = 0.000271, x1 = 0.0001801	x2 = 0.0003252, x1 = 0.0001801	x2 = 0.0003793, x1 = 0.0001801	x2 = 0.0004335, x1 = 0.0001801	x2 = 0.0004877, x1 = 0.0001801	x2 = 0.0005418, x1 = 0.0001801
293.15 K	1.029	1.031	1.032	1.033	1.034	1.034	1.035	1.035	1.035	1.035
298.15 K	0.916	0.919	0.92	0.922	0.924	0.926	0.928	0.929	0.93	0.931
303.15 K	0.808	0.81	0.813	0.816	0.817	0.82	0.82	0.82	0.822	0.821
308.15 K	0.724	0.726	0.727	0.729	0.729	0.73	0.731	0.731	0.732	0.732
313.15 K	0.657	0.659	0.662	0.664	0.665	0.667	0.667	0.668	0.669	0.669
318.15 K	0.607	0.607	0.609	0.61	0.611	0.613	0.613	0.617	0.618	0.619

CCCCCCCCCCCCCC[P+](CCCCCC)(CCCCCC)CCCCCC.c1nnn[n-]1 + CCCCCC[n+]1ccn(C)c1.O=S(=O)([N-]S(=O)(=O)C(F)(F)F)C(F)(F)F
100 kPa
Conditions	viscosity [mPa·s]
283.15 K, x2 = 0.102	1711
283.15 K, x2 = 0.299	1361
283.15 K, x2 = 0.6	662
283.15 K, x2 = 0.8	342
288.15 K, x2 = 0.102	1155
288.15 K, x2 = 0.201	1055
288.15 K, x2 = 0.8	247
288.15 K, x2 = 0.9	158
298.15 K, x2 = 0.102	567
298.15 K, x2 = 0.6	245
303.15 K, x2 = 0.201	382
303.15 K, x2 = 0.701	145
308.15 K, x2 = 0.201	286
308.15 K, x2 = 0.299	253
308.15 K, x2 = 0.8	86
308.15 K, x2 = 0.9	59
313.15 K, x2 = 0.6	112
318.15 K, x2 = 0.349	141

C[n+]1ccn(CCC(F)(F)C(F)(F)F)c1.F[P-](F)(F)(F)(F)F + CCCC[n+]1ccn(C)c1.F[P-](F)(F)(F)(F)F
Conditions	viscosity [mPa·s]
338.16 K, 100 kPa, x2 = 0.972	40.9

Reference: the CheMixHub ionic liquid set
